Results taken from patent US8586602B2, “Derivatives of 7 alkynyl-1,8 naphthyridones, preparation method thereof and use of same in therapeutics” (Sanofi, priority 2007, dated 2013).
Values joined by “and” are separate entries in the source; they are usually repeats but may differ in a detail not shown here. Identical values can stand only once. Counter-ions that a name gives are not always drawn.

Assays:
VEGFR-3-TK = molecular target: T1, VEGFR-3-TK (Homo sapiens, UniProt P35916); experiment: Measurement of the tyrosine kinase activity of VEGFR-3 by ELISA (phosphorylation of poly Glu-Tyr); assay type: biochemical; conditions: VEGFR-3 ELISA, poly Glu-Tyr substrate, 30 μM ATP, 30 min at ambient temperature; read-out: IC50 (concentration which decreases the total activity of the enzyme by 50%)
T1 construct: purchased Cell Signaling 7790
T1 sequence (P35916 800-1297 limits assumed): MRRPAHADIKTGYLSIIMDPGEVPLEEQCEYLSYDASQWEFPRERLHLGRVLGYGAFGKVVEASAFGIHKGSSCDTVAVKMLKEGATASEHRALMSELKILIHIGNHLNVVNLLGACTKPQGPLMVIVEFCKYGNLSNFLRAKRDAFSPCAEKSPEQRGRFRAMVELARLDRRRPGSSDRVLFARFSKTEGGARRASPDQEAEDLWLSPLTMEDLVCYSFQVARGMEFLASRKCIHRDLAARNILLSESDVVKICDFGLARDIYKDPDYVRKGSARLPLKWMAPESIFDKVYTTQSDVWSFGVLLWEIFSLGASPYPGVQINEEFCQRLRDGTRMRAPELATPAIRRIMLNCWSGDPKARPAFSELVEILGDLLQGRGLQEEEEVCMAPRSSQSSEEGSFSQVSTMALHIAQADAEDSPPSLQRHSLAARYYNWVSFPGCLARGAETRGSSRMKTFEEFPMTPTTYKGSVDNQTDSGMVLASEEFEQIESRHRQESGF
Experimental: The compounds according to the invention have formed the subject of pharmacological assays which make it possible to determine their inhibitory effect on the VEGFR-3 enzyme.
Measurement of the Tyrosine Kinase Activity of VEGFR-3 by ELISA
The effect of the products is quantified by the concentration which decreases the total activity of the enzyme by 50% (IC50). For the determination of the IC50 values, the product is diluted in DMSO with a concentration range which extends from 3 to 1000 nM. The day before the manipulation, 125 μl of the poly Glu-Tyr substrate (250 μg/ml in 1×PBS without Ca^2+ or Mg^2+ or sodium bicarbonate) are deposited in each well of an ELISA plate (for example, an ELISA plate of the SIGMA Protein Tyrosine Kinase Assay kit, Ref. PTK-101). The plate is subsequently covered with an adhesive film and incubated overnight at 37° C. The following day, the wells are emptied by turning the plate over, washed by adding 300 μl of buffer solution (PBS+0.05% Tween 20) and dried by further incubation of the plate for 2 h at 37° C. A 90 μl reaction mixture is deposited onto each well. This mixture comprises the 1× kinase buffer to which 30 μM of ATP and the inhibitor at the desired concentration have been added. […]

Row | melting point | IC50 (VEGFR-3-TK) [nM] | Structure (SMILES)
1 | 293 °C |  | CCn1c(N)c(C(=O)NC)c(=O)c2ccc(C#CC(C)(C)N)nc21 (as salt: hydrochloride) [Compound 4, 2-Amino-7-(3-amino-3-methylbut-1-yn-1-yl)-1-ethyl-N-methyl-4-oxo-1,4-dihydro-1,8-naphthyridine-3-carboxamide hydrochloride]
2 | 233 °C | 343 | CCn1c(N)c(C(=O)NC)c(=O)c2ccc(C#CCOC)nc21 [Compound 5, 2-amino-1-ethyl-7-(3-methoxyprop-1-yn-1-yl)-N-methyl-4-oxo-1,4-dihydro-1,8-naphthyridine-3-carboxamide]
3 | 204 °C |  | CCn1c(N)c(C(=O)NC)c(=O)c2ccc(C#CC(C)(C)OCC(N)=O)nc21 [Compound 6, 2-Amino-7-[3-(2-amino-2-oxoethoxy)-3-methylbut-1-yn-1-yl]-1-ethyl-N-methyl-4-oxo-1,4-dihydro-1,8-naphthyridine-3-carboxamide]

More lines, now with the values behind:

Row | Structure (SMILES) | melting point | IC50 (VEGFR-3-TK) [nM]
4 | CCn1c(N)c(C(=O)NC)c(=O)c2ccc(C#CC(C)(COC)OC)nc21 (racemic) [Compound 1, (±)-2-Amino-7-(3,4-dimethoxy-3-methylbut-1-yn-1-yl)-1-ethyl-N-methyl-4-oxo-1,4-dihydro-1,8-naphthyridine-3-carboxamide] | 185 to 187 °C | 
5 | CCn1c(N)c(C(=O)NC)c(=O)c2ccc(C#CCNC(=O)OC)nc21 [Compound 2, Methyl {3-[7-amino-8-ethyl-6-(methylcarbamoyl)-5-oxo-5,8-dihydro-1,8-naphthyridin-2-yl]prop-2-yn-1-yl}carbamate] | 255 °C and 250 °C | 
6 | CCn1c(N)c(C(=O)NC)c(=O)c2ccc(C#CC(C)(C)N)nc21 [Compound 4, 2-Amino-7-(3-amino-3-methylbut-1-yn-1-yl)-1-ethyl-N-methyl-4-oxo-1,4-dihydro-1,8-naphthyridine-3-carboxamide hydrochloride] |  | 451
